# Read-outs that look alike come from different tables or passages of the source.
# Assays:
# [1] = test system: HEK293 cells overexpressing 17β-HSD10; assay: LDH cytotoxicity assay; type: cell-based, human; conditions: 50 μM compound, 24 h, n = 3 ± SD
# Method: Cell cytotoxicity was assessed via the measurement of LDH leakage into the culture medium using a commercially available kit from Pierce (Thermo Scientific cat no. 88953). This was carried out in accordance with the kit guidelines, with the activity of LDH being calculated from the change in absorbance at […]. Human embryonic kidney (HEK293) cells overexpressing 17β-HSD10 were cultured in phenol-red free media (10% FBS, 1 mM sodium pyruvate, 100 units penicillin, 0.1 mg mL^–1 streptomycin, and 2 mM L-glutamine) and seeded at a density of 10,000 cells per well (100 μL, 96-well plates). […] Treated cells were then incubated at 37 °C and CO2 (5%) for 24 h before the LDH assay was performed as per the manufacturer’s instructions. Spontaneous control (water) and maximum control (lysis buffer) were used in accordance with the kit guide. Absorbance was measured at 490 and 680 nm using the SpectraMaxM2e spectrophotometer. The measured LDH activity was used to calculate %cytotoxicity using the following equation (eq ): %cytotoxicity=(compoundtreatedLDHactivity−spontaneousLDHactivity)/(maximumLDHactivity−spontaneousLDHactivity)×100 1
# [2] = Alamar Blue cell viability assay; type: cell-based, human; conditions: human, HEK293 cells overexpressing 17β-HSD10, 50 μM compound, n = 3 ± SD, read-out: Alamar Blue % viability (50 μM dose)
# Method: Cell viability was assessed via fluorescence change using the commercially available Alamar Blue from ThermoFisher. HEK293 cells overexpressing 17β-HSD10 were cultured in phenol-red free media (10% FBS, 1 mM sodium pyruvate, 100 units penicillin, 0.1 mg mL^–1 streptomycin, and 2 mM L-glutamine) and seeded at a density of 10,000 cells per well (100 μL, 96-well plates). […] Treated cells were then incubated at 37 °C and CO2 (5%) for 24 h before the assay was performed as per the manufacturer’s instructions. Fluorescence was measured at 530 nm excitation and 590 nm emission using the SpectraMaxM2e spectrophotometer.
# 17β-HSD10 [3] = target: T1, 17β-HSD10 (Homo sapiens, UniProt Q99714); assay: 17β-HSD10 enzyme inhibition dose-response assay (acetoacetyl-CoA/NADH, absorbance 340 nm); type: biochemical; conditions: for fold improvement in activity/potency over hit ESC1002082: relative to ESC1002082
# T1 construct: Recombinant 17β-HSD10 was expressed and purified as previously described in Aitken et al; made in house
# T1 sequence (Q99714 1-261): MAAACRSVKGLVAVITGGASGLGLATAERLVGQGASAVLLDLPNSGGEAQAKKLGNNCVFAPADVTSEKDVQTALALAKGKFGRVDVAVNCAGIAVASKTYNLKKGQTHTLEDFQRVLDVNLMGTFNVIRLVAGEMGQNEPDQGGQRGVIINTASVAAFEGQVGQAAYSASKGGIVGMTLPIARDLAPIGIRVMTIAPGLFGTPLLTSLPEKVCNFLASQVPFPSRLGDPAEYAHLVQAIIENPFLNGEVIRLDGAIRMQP
# Method: Recombinant 17β-HSD10 was expressed and purified as previously described in Aitken et al.
# 17β-HSD10 screening was carried out as described in Aitken et al. with the exception that experiments were also conducted in clear-bottom 1536-well low-volume microplates (Corning) with a final assay volume of 20 μL. For primary screening, an endpoint assay format was adopted, in which an Echo acoustic liquid dispenser (Labcyte) was used to transfer 20 nL of either DMSO control […] or test compounds (10 μM) to the assay plate. 10 μL of the 17β-HSD10 enzyme in an assay buffer (2.5 nM) was then added to the plates using the Preddator liquid handling robot (Redd and Whyte), and plates were incubated at RT for 15 min. 10 μL of the substrate mixture (100 μM acetoacetyl-CoA and 100 μM NADH) was added with the Preddator. To start the reaction, the plates were left to incubate for 35 min at RT before the absorbance at 340 nm was read on the EnVision plate reader (PerkinElmer). For the kinetic assay format and dose-response follow-up experiments, the same protocol was adopted, except that the absorbance at 340 nm was monitored constantly for 45 min from immediately after the reaction was started.
# 17β-HSD10 [4] = target: T1, 17β-HSD10; assay: (−)-CHANA fluorescence assay of cellular 17β-HSD10 activity; type: cell-based; conditions: read-out: cellular 17β-HSD10 activity mean pEC50 (converted)
# Method: (−)–CHANA ((−)-cyclohexenyl amino naphthalene alcohol) is a fluorogenic probe that can be used to detect 17β-HSD10 activity in living cells. HEK293 17β-HSD10 cells were seeded at a density of 10,000 cells per well (100 μL, 96-well black plates) in phenol-red free media (10% FBS, 1 mM sodium pyruvate, 100 units penicillin, 0.1 mg mL^–1 streptomycin, and 2 mM L-glutamine). […] The fluorogenic probe (−)–CHANA was then added to each well to give a final assay concentration of 20 μM. Fluorescence was immediately measured using the FLUOstar Optima microplate reader (excitation = 380 nm, emission = 520 nm, orbital averaging = 3 mm), and the initial reaction was monitored for 3–4 h. EC50 was calculated from the control-subtracted triplicates using nonlinear regression (four parameters) of GraphPad Prism 5 software. The Final EC50 and SEM values were obtained as a mean of at least three independent measurements.
# [5] = Mouse hepatocyte metabolic stability; type: in vitro ADME; set-up: k (elimination constant): unit not given here; conditions: mouse hepatocytes; for Heps category: metabolism category; for Cl (clearance): limits of quantitation 0.5 and 50; for half-life: read-out: T1/2 (half-life)
# Method: Hepatocyte isolation, hepatocyte incubations for metabolic stability, plasma protein binding (PPB) experiments, and LC/MS sample analysis were carried out as previously described in Brandon et al. and MacLeod et al.
# XLfit (IDBS, UK) was used to calculate the exponential decay and the rate constant (k) from the ratio of the peak area of the test compound to the internal standard at each time point. […] Verapamil, 7-ethoxycoumarin, 7-hydroxycoumarin, and phthalazine were used as positive controls to confirm acceptable assay performance. […] Values were transferred to RStudio v1.3.1093 (Posit, Boston, MA, USA) for generation of scatter plots and heatmaps using the ggplot2 package (Wickham 2016).
# [6] = Table 3, chemically modified singleton hit compound series, read-out: 17β-HSD10 pIC50 (converted)
# [7] = Table 4, 17β-HSD10 overexpressing HEK293 cells, CHANA fluorescence assay
# [8] = Table 2, chemically modified cluster hit compounds, read-out: 17β-HSD10 pIC50 (converted)
# [9] = Table 1, primary screening assay, resynthesized HTS hits, read-out: 17β-HSD10 pIC50 (converted)
# [10] = Table 5, read-out: mean 17β-HSD10 pIC50 (converted)
# [11] = Table 5, HEK293 17β-HSD10 cells, CHANA assay
IC50 (17β-HSD10 [3]; [6]) [nM],EC50 (17β-HSD10 [4]; [7]) [nM],IC50 (17β-HSD10 [3]; [8]) [nM],SMILES,LDH % toxicity (50 μM dose) [1] [%],"viability at 24 h, 50 μM [2] [%]",also measured
–,–,–,COc1cccc(-c2ccccc2C2CCCN2C(=O)c2sccc2Cl)c1 (racemic) [ESC1002432],4.24 ± 0.02,80.61 ± 0.78,–
40.7,228,–,O=C(c1sccc1Cl)N1CCCC1c1ccccc1-c1cc(O)cc(F)c1 (racemic) [ESC1002776],20.00 ± 0.11,65.6 ± 1.67,–
–,–,251,Cc1ccc(C(=O)N(CC(C)C)c2cccc(N(C)Cc3cnc[nH]3)c2)cc1 [ESC1002032],–,–,–
–,–,–,CC(C)CN(C(=O)c1ccncc1)c1cccc(N(C)Cc2cnc[nH]2)c1 [ESC1002034],–,–,IC50 (17β-HSD10 [3]; [9]): 1580 nM
–,–,–,COc1cccc(C(=O)N(CC(C)C)c2cccc(N(C)Cc3cnc[nH]3)c2)c1 [ESC1002038],–,–,IC50 (17β-HSD10 [3]; [9]): 2000 nM
–,–,316,CC(C)CN(C(=O)c1ccc(Cl)cc1F)c1cccc(N(C)Cc2cnc[nH]2)c1 [ESC1002042],–,–,"LipE (17β-HSD10 [3]; Table 1, lipophilic efficiency): 1.46"
–,–,–,O=C(c1ccccc1F)N1CCCc2ccc(NCc3cnc[nH]3)cc21 [ESC1002081],–,–,17β-HSD10 inhibitory activity (in words) (17β-HSD10 [3]): potency was abolished
331,1790,–,COc1ccc(-c2ccccc2[C@@H]2CCCN2C(=O)c2sccc2C)cc1 [ESC1002089],5.40 ± 0.05,82 ± 2.23,fold improvement in activity/potency over hit ESC1002082 (17β-HSD10 [3]): ~3 fold
1150,–,–,Cc1ccsc1C(=O)N1CCC[C@H]1c1ccccc1-c1cccnc1 [ESC1002090],–,–,–
–,–,–,COc1ccc(-c2ccccc2[C@@H]2CCCN2C(=O)c2sccc2C)cn1 [ESC1002161],–,–,"17β-HSD10 pIC50 (17β-HSD10 [3]; Supplementary B, Table S1 and text, enantiomers): < 4.7"
–,976,955,CC(C)CN(C(=O)C1CCCCC1)c1cccc(N(C)Cc2cnc[nH]2)c1 [ESC1002166],4.55 ± 0.02,78.9 ± 0.9,–
–,1670,331,COc1ccc(C(=O)N(CC(C)C)c2cccc(N(C)Cc3cnc[nH]3)c2)cc1 [ESC1002182],4.73 ± 0.01,85.4 ± 3.61,–
–,1360,398,Cc1nc[nH]c1CN(C)c1cccc(N(CC(C)C)C(=O)c2ccccc2F)c1 [ESC1002204],5.05 ± 0.01,96.7 ± 3.61,k (elimination constant) [5]: 0.11; Heps category [5]: high; Cl (clearance) [5]: >50 mL/min/g liver; half-life [5]: 6.2 min; IC50 (17β-HSD10 [3]; [10]): 398 nM; EC50 (17β-HSD10 [4]; [11]): 1360 nM
–,3130,891,CC(C)CN(C(=O)c1ccccc1F)c1cccc(N(C)Cc2ccn[nH]2)c1 [ESC1002205],5.84 ± 0.01,82.52 ± 0.57,–
–,7220,166,COc1ccc(-c2ccccc2C2CCCN2C(=O)c2sccc2C)cc1 (centres unmarked) [ESC1002332],3.52 ± 0.01,87.7 ± 1.67,–
–,1150,–,COc1cccc(-c2ccccc2C2CCCN2C(=O)c2sccc2C)c1 (centres unmarked) [ESC1002338],4.64 ± 0.01,83 ± 1.25,"IC50 (17β-HSD10 [3]; enzyme screening assay, read-out: IC50): 191 nM"
933,–,–,Cc1ccsc1C(=O)N1CCC[C@H]1c1ccccc1-c1cnn(C)c1 [ESC1002424],–,–,LipE (17β-HSD10 [3]): 2.1
–,–,–,COc1cccc(-c2ccccc2[C@H]2CCCN2C(=O)c2ccccc2C)c1 [ESC1002434],–,–,17β-HSD10 inhibitory activity (in words) (17β-HSD10 [3]): not tolerated
–,599,245,COc1ccc(C(=O)N(CC(C)C)c2cccc(N(C)Cc3c[nH]cn3)c2)c(F)c1 [ESC1002576],5.19 ± 0.01,79.1 ± 0.99,–
–,–,–,COc1cccc(-c2ccccc2C2CCCN2C(=O)c2sccc2Cl)c1 (centres unmarked) [ESC1002606],5.09 ± 0.02,78 ± 1.09,–
457,–,–,COc1cccc(-c2ccccc2[C@@H]2CCCN2C(=O)c2[nH]ncc2Cl)c1 [ESC1002626],–,–,–
–,–,9330,CC(C)CN(C(=O)c1ccccc1F)c1cccc(NCc2c[nH]cn2)c1 [ESC1002631],–,–,–
58.9,138,–,O=C(c1sccc1Cl)N1CCC[C@H]1c1ccccc1-c1cccc(O)c1 [ESC1002666],4.49 ± 0.02,79.3 ± 1.03,–
–,–,–,COc1cccc(-c2ccccc2C2CCCN2Cc2sccc2F)c1 (centres unmarked) [ESC1002695],–,–,17β-HSD10 inhibitory activity (in words) (17β-HSD10 [3]): lost all activity
20,28,–,O=C(c1sccc1Cl)N1CCCC1c1ccccc1-c1cccc(O)c1 (centres unmarked) [ESC1002755],5.47 ± 0.04,85.3 ± 2.01,k (elimination constant) [5]: 0.22; Heps category [5]: high; Cl (clearance) [5]: >50 mL/min/g liver; half-life [5]: 3.1 min; IC50 (17β-HSD10 [3]; [10]): 18.6 nM; fold improvement in activity/potency over hit ESC1002082 (17β-HSD10 [3]): 40 fold; EC50 (17β-HSD10 [4]; [11]): 28 nM
115,266,–,COc1cccc(-c2ccccc2C2CCCN2C(=O)c2[nH]ncc2Cl)c1 (centres unmarked) [ESC1002757],5.03 ± 0.02,89.52 ± 0.84,k (elimination constant) [5]: 0.13; Heps category [5]: high; Cl (clearance) [5]: >50 mL/min/g liver; half-life [5]: 5.3 min; LipE (17β-HSD10 [3]): 2.76; IC50 (17β-HSD10 [3]; [10]): 105 nM; EC50 (17β-HSD10 [4]; [11]): 266 nM
49,449,–,O=C(c1sccc1Cl)N1CCCC1c1ccccc1-c1ccc(F)c(O)c1 (centres unmarked) [ESC1002775],2.54 ± 0.004,81.53 ± 0.56,–
51.3,50,–,O=C(c1sccc1Cl)N1CCCC1c1ccccc1-c1cc(O)cc(F)c1 (centres unmarked) [ESC1002801],5.50 ± 0.01,82.55 ± 0.62,–

# From article PMC12281485, “High-Throughput Screening of Potent Drug-like Molecules Targeting 17β-HSD10 for the Treatment of Alzheimer’s Disease and Cancer” (ACS Chemical Biology, 2025)
